Results published in EPA's ToxValDB 9.5 (doi:10.2903/j.efsa.2010.1565).
Converted amounts (≈) assume the structure as drawn.

Tests used:
Colinus virginianus = settings: acute; oral; mortality
Typhlodromus pyri = settings: not reported; other
Daphnia magna = settings: chronic/long-term; duration: 21 days; reproduction
Rattus norvegicus = settings: oral
Canidae = settings: chronic; duration: 1 years; oral; Dog Other; organ weight

**Q.** For `CCN(CC)C(=O)C(C)Oc1cccc2ccccc12` (configuration not stated) [Napropamide], which LD50 (Colinus virginianus) is on record?
**A.** Its LD50 is over 2250 mg/kg.

**Q.** What about the LEL (Typhlodromus pyri) of the same molecule?
**A.** The LEL was 4500 g/ha.

**Q.** And the NOEC (Daphnia magna)?
**A.** Its NOEC is 4.3 mg/L.

**Q.** And the LC50 (Oncorhynchus mykiss; acute, duration: 96 hours, mortality)?
**A.** Its LC50 is 6.6 µg/mL (≈ 24.3 µM).

**Q.** What about the NOEC (Oncorhynchus mykiss; chronic/long-term, duration: 28 days, growth) of the same molecule?
**A.** Its NOEC is 1.1 mg/L.

**Q.** And the LD50 (Rattus norvegicus; acute, mortality)?
**A.** Its LD50 is 4680 mg/kg.

**Q.** What about the NOAEL (Rattus norvegicus; chronic, duration: 2 years, body weight) of the same molecule?
**A.** Its NOAEL is 30 mg/kg-day.

**Q.** What about the LC50 (Tagia sp.; acute, duration: 14 days, mortality) of the same molecule?
**A.** Its LC50 is 564 mg/kg.

**Q.** And the NOEC (Tagia sp.; chronic/long-term, reproduction)?
**A.** Its NOEC is 60 mg/kg.

**Q.** And the NOEL (Anas platyrhynchos; reproductive, reproduction)?
**A.** The NOEL was 309 mg/kg-day.

**Q.** What about the LC50 (Anas platyrhynchos; short-term, oral, feed, mortality) of the same molecule?
**A.** Its LC50 is over 1570 mg/kg-day.

**Q.** And the NOAEL (Canidae)?
**A.** The NOAEL was 50 mg/kg-day.
